Laboratory results from US10799507B2, “5-(7H-pyrrolo[2,3-d]pyrimidin-4-yl)-5-azaspiro[2.5]octane-8-carboxylic acid derivatives as novel JAK kinase inhibitors” (LEO Pharma A/S, priority 2017, dated 2020).

Tests used:
Format in all cases: biochemical
JAK1 = JAK1 (Homo sapiens (Human), UniProt P23458); test: JAK kinase assay (HTRF), JAK1; conditions: catalytic domain, ATP at Km (7 μM)
Procedure: (§1) Human baculovirus-expressed JAK1, 2, 3 and TYK2 were purchased from Carna Biosciences, Inc. All four purified enzymes contain only the catalytic domain. JAK1 (aa 850-1154) and TYK2 (aa 871-1187) are expressed with an N-terminally fused GST-tag, and JAK2 and JAK3 with an N-terminally fused His-tag.
(§2) Inhibition of phosphorylation of a synthetic peptide was measured in an HTRF-based assay using the TK substrate-Biotin from the Cisbio HTRFKinEASE TK kit. First, 2 μl of TK solution (TK substrate-biotin in kinase buffer [1× enzymatic buffer from HTRFKinEASE TK kit, 1 mM DTT]) is added to a plate containing 1 μl prediluted compound (final assay concentration DMSO: 0.75%). Then, 5 μl kinase-ATP mix (prepared in kinase buffer) is added to the wells and the plates are incubated at RT for 20-30 min. For all four kinases a concentration of ATP that corresponded to the Km for ATP was used. The final concentrations of buffers, substrate, kinase and ATP were: JAK1: 50 mM Hepes buffer pH 7.0, 0.01% BSA, 10 mM MgCl2, 1 mM DTT, 7 μM ATP, 50 nM SEB, 1 μM TK Substrate-Biotin and 5 ng JAK1; JAK2: 50 mM Hepes buffer pH 7.0, 0.01% BSA, 5 mM MgCl2, 1 mM DTT, 4 μM ATP, 1 μM TK Substrate-Biotin and 0.1 ng JAK2; JAK3: 50 mM Hepes buffer pH 7.0, 0.01% BSA, 5 mM MgCl2, 1 mM DTT, 2 μM ATP, 1 μM TK Substrate-Biotin and 0.3 ng JAK3; TYK2: 50 mM Hepes buffer pH 7.0, 0.01% BSA, 5 mM MgCl2, 1 mM DTT, 13 μM ATP, 50 nM SEB, 1 μM TK Substrate-Biotin and 0.8 ng TYK2. Thereafter, the kinase reaction is stopped by adding 4 μl detection mix (final concentrations: 50 mM Hepes buffer pH 7.0, 0.01% BSA, 0.8 M KF, 20 mM EDTA, 42 nM Streptavidin-XL665 and 1:400 STK Ab Cryptate) and the plates are incubated overnight in the dark. The HTRF signal is read using an Envision plate reader.

JAK2 = JAK2 (Homo sapiens (Human), UniProt O60674); test: JAK kinase assay (HTRF), JAK2; conditions: catalytic domain, ATP at Km (4 μM)
Procedure: as §1, §2

JAK3 = JAK3 (Homo sapiens (Human), UniProt P52333); test: JAK kinase assay (HTRF), JAK3; conditions: catalytic domain, ATP at Km (2 μM)
Procedure: as §1, §2
(§3) In Table 1 selected JAK kinase inhibitory activities are listed along with analytical tR and observed M+H^+ data (UPLC-MS method 7).

TYK2 = TYK2 (Homo sapiens (Human), UniProt P29597); test: JAK kinase assay (HTRF), TYK2; conditions: catalytic domain, ATP at Km (13 μM)
Procedure: as §1, §2, §3

Chain of JAK2 (O60674 849-1124): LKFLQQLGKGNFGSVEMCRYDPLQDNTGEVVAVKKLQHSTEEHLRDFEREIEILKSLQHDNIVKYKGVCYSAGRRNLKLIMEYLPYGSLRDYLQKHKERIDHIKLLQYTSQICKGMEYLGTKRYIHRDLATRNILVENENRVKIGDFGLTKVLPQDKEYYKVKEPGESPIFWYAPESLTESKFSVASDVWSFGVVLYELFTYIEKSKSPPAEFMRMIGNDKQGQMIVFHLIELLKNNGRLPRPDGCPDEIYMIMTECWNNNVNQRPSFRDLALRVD
Chain of TYK2 (P29597 871-1187): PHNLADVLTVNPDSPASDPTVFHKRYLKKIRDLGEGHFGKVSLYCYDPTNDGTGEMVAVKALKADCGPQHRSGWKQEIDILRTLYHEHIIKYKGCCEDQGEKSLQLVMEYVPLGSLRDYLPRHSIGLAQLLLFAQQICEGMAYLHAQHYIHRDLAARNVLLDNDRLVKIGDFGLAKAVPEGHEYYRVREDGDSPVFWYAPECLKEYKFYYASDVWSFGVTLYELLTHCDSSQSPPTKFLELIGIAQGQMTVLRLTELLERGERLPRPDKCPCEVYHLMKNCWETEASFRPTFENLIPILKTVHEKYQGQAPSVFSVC
Chain of JAK1 (P23458 850-1154): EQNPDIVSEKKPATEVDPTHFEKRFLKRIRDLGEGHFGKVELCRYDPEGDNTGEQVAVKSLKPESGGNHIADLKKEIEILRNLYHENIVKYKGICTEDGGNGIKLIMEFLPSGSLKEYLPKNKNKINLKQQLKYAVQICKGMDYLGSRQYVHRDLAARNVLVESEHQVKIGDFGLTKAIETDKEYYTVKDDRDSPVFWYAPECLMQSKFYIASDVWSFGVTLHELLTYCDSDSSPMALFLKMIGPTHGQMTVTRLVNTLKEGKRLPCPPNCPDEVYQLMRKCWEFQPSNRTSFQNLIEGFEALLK
Chain of JAK3 (P52333 822-1111): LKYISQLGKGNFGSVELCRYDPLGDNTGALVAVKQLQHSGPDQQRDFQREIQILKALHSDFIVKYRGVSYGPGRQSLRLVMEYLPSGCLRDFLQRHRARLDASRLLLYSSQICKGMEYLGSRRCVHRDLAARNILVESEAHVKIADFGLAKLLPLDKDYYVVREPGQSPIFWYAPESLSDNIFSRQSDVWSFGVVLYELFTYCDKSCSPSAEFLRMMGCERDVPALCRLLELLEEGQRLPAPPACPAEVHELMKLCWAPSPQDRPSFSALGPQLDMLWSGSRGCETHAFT

O=C(NCC1CCC1)C1CCN(c2ncnc3[nH]ccc23)CC12CC2 (stereo not shown) [Example 115, N-(cyclobutylmethyl)-5-(7H-pyrrolo[2,3-d]pyrimidin-4-yl)-5-azaspiro[2.5]octane-8-carboxamide]
EC50 (JAK1): 12.2 nM | EC50 (JAK2): 23.6 nM | EC50 (JAK3): 92.4 nM | EC50 (TYK2): 364 nM

O=C(N[C@H](CO)Cc1ccccc1)C1CCN(c2ncnc3[nH]ccc23)CC12CC2 (stereo partly drawn) [Example 141, N-[(1S)-1-benzyl-2-hydroxy-ethyl]-5-(7H-pyrrolo[2,3-d]pyrimidin-4-yl)-5-azaspiro[2.5]octane-8-carboxamide]
EC50 (JAK1): 41.2 nM | EC50 (JAK2): 81.6 nM | EC50 (JAK3): 52 nM | EC50 (TYK2): 4160 nM

O=C(NCc1cccc(F)c1)C1CCN(c2ncnc3[nH]ccc23)CC12CC2 (stereo not shown) [Example 81, N-[(3-fluorophenyl)methyl]-5-(7H-pyrrolo[2,3-d]pyrimidin-4-yl)-5-azaspiro[2.5]octane-8-carboxamide]
EC50 (JAK1): 6.7 nM | EC50 (JAK2): 14.1 nM | EC50 (JAK3): 37.7 nM | EC50 (TYK2): 117 nM

O=C(N[C@H](CO)C(=O)OC1CCCC1)[C@H]1CCN(c2ncnc3[nH]ccc23)CC12CC2 [Example 96, cyclopentyl (2R)-3-hydroxy-2-[[(8S)-5-(7H-pyrrolo[2,3-d]pyrimidin-4-yl)-5-azaspiro[2.5]octane-8-carbonyl]amino]propanoate]
EC50 (JAK1): 8.7 nM | EC50 (JAK2): 28.7 nM | EC50 (JAK3): 59.2 nM | EC50 (TYK2): 250 nM

O=C(NCc1cccnc1)C1CCN(c2ncnc3[nH]ccc23)CC12CC2 (stereo not shown) [Example 128, N-(3-pyridylmethyl)-5-(7H-pyrrolo[2,3-d]pyrimidin-4-yl)-5-azaspiro[2.5]octane-8-carboxamide]
EC50 (JAK1): 20.5 nM | EC50 (JAK2): 38.2 nM | EC50 (JAK3): 58.6 nM | EC50 (TYK2): 1410 nM

C[C@](CO)(NC(=O)[C@H]1CCN(c2ncnc3[nH]ccc23)CC12CC2)c1ccc(C#N)cn1 [Example 78, (8S)-N-[(1S)-1-(5-cyano-2-pyridyl)-2-hydroxy-1-methyl-ethyl]-5-(7H-pyrrolo[2,3-d]pyrimidin-4-yl)-5-azaspiro[2.5]octane-8-carboxamide]
EC50 (JAK1): 6.3 nM | EC50 (JAK2): 17 nM | EC50 (JAK3): 39.4 nM | EC50 (TYK2): 231 nM

O=C(N[C@H](CO)C(=O)OCC1(CO)CC1)[C@H]1CCN(c2ncnc3[nH]ccc23)CC12CC2 [Example 116, [1-(hydroxymethyl)cyclopropyl]methyl (2R)-3-hydroxy-2-[[(8S)-5-(7H-pyrrolo[2,3-d]pyrimidin-4-yl)-5-azaspiro[2.5]octane-8-carbonyl]amino]propanoate]
EC50 (JAK1): 12.4 nM | EC50 (JAK2): 24.7 nM | EC50 (JAK3): 47.8 nM | EC50 (TYK2): 210 nM

O=C(N[C@@H](CO)c1ccc(F)cc1CO)[C@H]1CCN(c2ncnc3[nH]ccc23)CC12CC2 [Example 100, (8S)-N-[(1R)-1-[4-fluoro-2-(hydroxymethyl)phenyl]-2-hydroxy-ethyl]-5-(7H-pyrrolo[2,3-d]pyrimidin-4-yl)-5-azaspiro[2.5]octane-8-carboxamide]
EC50 (JAK1): 9.1 nM | EC50 (JAK2): 37.3 nM | EC50 (JAK3): 71.9 nM | EC50 (TYK2): 248 nM

C[C@@H](NC(=O)[C@H]1CCN(c2ncnc3[nH]ccc23)CC12CC2)c1ccc(C#N)c(F)c1 [Example 84, (8S)-N-[(1R)-1-(4-cyano-3-fluoro-phenyl)ethyl]-5-(7H-pyrrolo[2,3-d]pyrimidin-4-yl)-5-azaspiro[2.5]octane-8-carboxamide]
EC50 (JAK1): 7 nM | EC50 (JAK2): 24.1 nM | EC50 (JAK3): 55.5 nM | EC50 (TYK2): 249 nM

Cc1ccc([C@H](O)[C@H](C)NC(=O)[C@H]2CCN(c3ncnc4[nH]ccc34)CC23CC3)cc1 [Example 73, (8S)-N-[(1S,2S)-2-hydroxy-1-methyl-2-(p-tolyl)ethyl]-5-(7H-pyrrolo[2,3-d]pyrimidin-4-yl)-5-azaspiro[2.5]octane-8-carboxamide]
EC50 (JAK1): 6.1 nM | EC50 (JAK2): 8.3 nM | EC50 (JAK3): 30.9 nM | EC50 (TYK2): 171 nM
